{"source": "patent US8012969B2", "about": "“11C-labeled benzyl-lactam compounds and their use as imaging agents” (GE Healthcare Limited, priority 2005, dated 2011)", "key": {"5HT1B receptor [1]": {"target": "T1, 5HT1B receptor (Macaca mulatta, UniProt F6SFA9)", "T1 construct": "in-vivo PET-experiments in Rhesus monkeys; from tissue; host or cells: brain of living rhesus monkeys (PET)", "T1 sequence (F6SFA9 1-390)": "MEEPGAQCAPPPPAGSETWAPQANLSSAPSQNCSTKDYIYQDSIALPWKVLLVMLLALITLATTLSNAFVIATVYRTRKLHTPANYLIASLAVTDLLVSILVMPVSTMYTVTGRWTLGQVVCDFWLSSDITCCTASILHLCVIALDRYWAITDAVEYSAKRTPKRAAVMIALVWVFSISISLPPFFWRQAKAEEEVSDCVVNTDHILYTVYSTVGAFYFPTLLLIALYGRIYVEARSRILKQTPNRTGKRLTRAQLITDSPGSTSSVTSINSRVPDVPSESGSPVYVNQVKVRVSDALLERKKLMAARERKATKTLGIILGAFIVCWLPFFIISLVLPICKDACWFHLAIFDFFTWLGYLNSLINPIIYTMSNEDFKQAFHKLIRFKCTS", "test": "in-vivo PET-experiments with compound I-B", "settings": "Rhesus monkeys"}, "5HT1B receptor [2]": {"target": "T2, 5HT1B receptor (Cavia porcellus, UniProt O08892)", "T2 construct": "in-vitro autoradiographies and ex-vivo experiments in Guinea pig; from tissue; host or cells: guinea pig brain (external globus pallidus, ventral pallidum)", "T2 sequence (O08892 whole entry)": "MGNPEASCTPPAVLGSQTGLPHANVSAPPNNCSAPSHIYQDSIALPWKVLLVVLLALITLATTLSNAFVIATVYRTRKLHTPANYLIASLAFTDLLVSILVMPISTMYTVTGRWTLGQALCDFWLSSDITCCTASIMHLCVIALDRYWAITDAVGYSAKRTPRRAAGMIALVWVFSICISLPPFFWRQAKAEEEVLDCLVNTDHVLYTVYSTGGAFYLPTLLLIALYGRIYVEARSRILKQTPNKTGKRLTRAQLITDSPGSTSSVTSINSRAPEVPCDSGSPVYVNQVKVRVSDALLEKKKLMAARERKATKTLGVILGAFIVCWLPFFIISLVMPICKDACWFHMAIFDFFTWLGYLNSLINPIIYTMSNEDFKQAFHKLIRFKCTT", "test": "in-vitro autoradiographies with compound I-B", "assay_type": "binding", "settings": "in-vitro autoradiography, Guinea pig"}, "5HT1B receptor [3]": {"target": "T2, 5HT1B receptor", "test": "ex-vivo experiments with compound I-B", "assay_type": "in vivo", "settings": "Guinea pig"}}}
{"smiles": "COC(C)(C)c1ccc(N2CC[C@@H](Cc3ccccc3N3CCN([11CH3])CC3)C2=O)cc1", "note": "[compound I-B, R-1-[4-(2-methoxy-isopropyl)-phenyl]-3-[2-(4-[^11C]methyl-piperazin-1-yl)benzyl]-pyrrolidin-2-one]", "values": [{"measurement": "sensitivity of uptake to blocking by other 5HT1B antagonists", "setting": "5HT1B receptor [1]", "value": "sensitive to blocking by other 5HT1B antagonists in a dose dependent manner"}, {"measurement": "specific uptake (regional distribution)", "setting": "5HT1B receptor [1]", "value": "specific uptake of compound I-B mainly in the external globus pallidus and ventral pallidum"}, {"measurement": "sensitivity of uptake to blocking by other 5HT1B antagonists", "setting": "5HT1B receptor [2]", "value": "sensitive to blocking by other 5HT1B antagonists in a dose dependent manner"}, {"measurement": "specific uptake (regional distribution)", "setting": "5HT1B receptor [2]", "value": "specific uptake of compound I-B mainly in the external globus pallidus and ventral pallidum"}, {"measurement": "sensitivity of uptake to blocking by other 5HT1B antagonists", "setting": "5HT1B receptor [3]", "value": "sensitive to blocking by other 5HT1B antagonists in a dose dependent manner"}, {"measurement": "specific uptake (regional distribution)", "setting": "5HT1B receptor [3]", "value": "specific uptake of compound I-B mainly in the external globus pallidus and ventral pallidum"}]}
